What is called Ki is a measure of affinity in units of concentration, obtained from inhibition or displacement.

Assay [1] concerns the target inactive non-phosphorylated p38α MAPK (Homo sapiens (Human), UniProt Q16539). The assay can be described thus: Fluorescence polarisation (FP) binding assay, inactive enzyme. Here is the method: (§1) A number of compounds were also assessed for the inhibition of p38α MAPK activity (www.kinase-screen.mrc.ac.uk) in which a radioactive (^33P-labelled ATP) filter binding assay was used to directly measure phosphate incorporation. Table 1 summarises the binding affinities of the synthesised compounds to both forms of the enzyme as well as the inhibitory activities against p38α MAPK. By way of enabling a comparison with a non-thiophene compound the biological testing was also carried out for known inhibitor RWJ67657, shown in table 1.
(§2) FP signals were measured with a PHERAstar microplate reader (BMG Labtech) using black, low-binding half-area 96 well plates (Corning). Each binding data point was carried out in duplicate or triplicate. Data were recorded in millipolarisation (mP) units and measured at an excitation wavelength of 485 nm and an emission wavelength of 520 nm. Tris(hydroxymethyl)aminomethane (Tris) assay buffer was used in all binding experiments and consisted of 10 mM Tris, […] potassium chloride, and 3.5 mM 3-((3-cholamidopropyl)dimethylammonium)-1-propanesulfonate (Chaps) at pH 8.0.
(§3) Test compounds were prepared from dimethylsulfoxide stocks (10 mM). […] Plates were incubated at room temperature for 1 hour and FP signals were recorded. For binding experiments to active p38α MAPK, the FP signals were recorded after 2 hours incubation at room temperature. Data is represented as mean±SEM from two to three independent experiments.
In general terms: Fluorescence polarisation rises when a labelled molecule tumbles more slowly, as on binding a larger partner.

Assay [2] deals with active phosphorylated p38α MAPK (Homo sapiens (Human), UniProt Q16539). Kind of assay: Fluorescence polarisation (FP) binding assay, active enzyme. Here is the method:
as §1, §2, §3

Where [3] appears, read: Table 5, read-out: Ki ± SEM (μM) to inactive p38α MAPK.
Setting [4] is: Table 6, read-out: Ki ± SEM (μM) to inactive p38α.
The mark [5] stands for this setting: Table 6, read-out: Ki ± SEM (μM) to active p38α.

Where two headings read alike, the source gives them in different places.

Chain of inactive non-phosphorylated p38α MAPK (Q16539 whole entry): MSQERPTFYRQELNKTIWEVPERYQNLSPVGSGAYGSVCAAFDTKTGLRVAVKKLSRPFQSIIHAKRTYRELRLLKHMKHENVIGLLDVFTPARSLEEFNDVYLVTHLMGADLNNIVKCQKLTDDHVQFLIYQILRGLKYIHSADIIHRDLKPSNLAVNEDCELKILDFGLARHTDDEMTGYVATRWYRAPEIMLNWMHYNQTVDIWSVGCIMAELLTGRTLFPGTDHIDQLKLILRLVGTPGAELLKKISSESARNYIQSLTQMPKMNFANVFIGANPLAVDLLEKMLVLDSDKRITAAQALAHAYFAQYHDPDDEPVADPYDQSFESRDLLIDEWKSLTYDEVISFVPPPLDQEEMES
Chain of active phosphorylated p38α MAPK (Q16539 whole entry): as above

For `Fc1ccc(-c2sccc2-c2ccncc2)cc1` [Compound 3.2, 4-(2-(4-Fluorophenyl)thiophen-3-yl)pyridine], the Ki in assay [1] (setting [3]) stood at 5 ± 0.4 µM; in assay [1] (setting [4]) it was 5 ± 0.4 µM; in assay [2] (Table 5, read-out: Ki ± SEM (μM) to active p38α MAPK), 0.6 ± 0.1 µM; in assay [2] (setting [5]) it was 0.6 ± 0.1 µM.

In the case of `Fc1ccc(-c2sc(I)c(I)c2-c2ccncc2)cc1` [Compound 3.3, 4-(2-(4-Fluorophenyl)-4,5-diiodothiophen-3-yl)pyridine], the Ki in assay [1] (setting [4]) and in assay [2] (setting [5]) was over 10 µM in each case.

For `COC(=O)c1ccccc1-c1c(C#CCCO)sc(-c2ccc(F)cc2)c1-c1ccncc1` [Compound 3.28, Methyl 2-(5-(4-fluorophenyl)-2-(4-hydroxybut-1-yn-1-yl)-4-(pyridin-4-yl)thiophen-3-yl)benzoate], the values for the Ki in assay [1] (setting [4]) and in assay [2] (setting [5]) were over 10 µM and 8.7 µM, respectively.

`COC(=O)c1cccc(-c2c(C#CCCO)sc(-c3ccc(F)cc3)c2-c2ccncc2)c1` [Compound 3.29, Methyl 3-(5-(4-fluorophenyl)-2-(4-hydroxybut-1-yn-1-yl)-4-(pyridin-4-yl)thiophen-3-yl)benzoate]: the values for the inhibition constant (Ki) in assay [1] (setting [4]) and in assay [2] (setting [5]) were over 10 µM and 3 µM, respectively.

As to `COC(=O)c1ccc(-c2c(C#CCCO)sc(-c3ccc(F)cc3)c2-c2ccncc2)cc1` [Compound 3.30, Methyl 4-(5-(4-fluorophenyl)-2-(4-hydroxybut-1-yn-1-yl)-4-(pyridin-4-yl)thiophen-3-yl)benzoate], the Ki in assay [1] (setting [4]) and in assay [2] (setting [5]) was over 10 µM in each case.

`O=C(O)c1cccc(-c2c(C#CCCO)sc(-c3ccc(F)cc3)c2-c2ccncc2)c1` [Compound 3.31, 3-(5-(4-Fluorophenyl)-2-(4-hydroxybut-1-yn-1-yl)-4-(pyridin-4-yl)thiophen-3-yl)benzoic acid]: the Ki in assay [1] (setting [4]) was over 10 µM; in assay [2] (setting [5]), 7.1 µM.

Consider `O=C(O)c1ccc(-c2c(C#CCCO)sc(-c3ccc(F)cc3)c2-c2ccncc2)cc1` [Compound 3.32, 4-(5-(4-Fluorophenyl)-2-(4-hydroxybut-1-yn-1-yl)-4-(pyridin-4-yl)thiophen-3-yl)benzoic acid], for which the Ki in assay [1] (setting [4]) and in assay [2] (setting [5]) was over 10 µM each time.

`OCCC#Cc1sc(-c2ccc(F)cc2)c(-c2ccncc2)c1-c1cccc(CO)c1` [Compound 3.33, 4-(5-(4-Fluorophenyl)-3-(3-(hydroxymethyl)phenyl)-4-(pyridin-4-yl)thiophen-2-yl)but-3-yn-1-ol]: the Ki in assay [1] (setting [4]) is over 10 µM; in assay [2] (setting [5]) it was 1.3 ± 0.2 µM.

As to `OCCC#Cc1sc(-c2ccc(F)cc2)c(-c2ccncc2)c1-c1ccc(CO)cc1` [Compound 3.34, 4-(5-(4-Fluorophenyl)-3-(4-(hydroxymethyl)phenyl)-4-(pyridin-4-yl)thiophen-2-yl)but-3-yn-1-ol], the Ki is over 10 µM in assay [1] (setting [4]) and 3.5 µM in assay [2] (setting [5]).

Take `NC(=O)c1cccc(-c2c(C#CCCO)sc(-c3ccc(F)cc3)c2-c2ccncc2)c1` [Compound 3.35, 3-(5-(4-Fluorophenyl)-2-(4-hydroxybut-1-yn-1-yl)-4-(pyridin-4-yl)thiophen-3-yl)benzamide]: the Ki was over 10 µM in assay [1] (setting [4]) and 2.2 ± 0.3 µM in assay [2] (setting [5]).

In the case of `NC(=O)c1ccc(-c2c(C#CCCO)sc(-c3ccc(F)cc3)c2-c2ccncc2)cc1` [Compound 3.36, 4-(5-(4-Fluorophenyl)-2-(4-hydroxybut-1-yn-1-yl)-4-(pyridin-4-yl)thiophen-3-yl)benzamide], the Ki in assay [1] (setting [4]) is over 10 µM; in assay [2] (setting [5]), 2 ± 1 µM.

As to `O=C(NCCO)c1cccc(-c2c(C#CCCO)sc(-c3ccc(F)cc3)c2-c2ccncc2)c1` [Compound 3.37, 3-(5-(4-Fluorophenyl)-2-(4-hydroxybut-1-yn-1-yl)-4-(pyridin-4-yl)thiophen-3-yl)-N-(2-hydroxyethyl)benzamide], the Ki came to 1.9 ± 0.2 µM in assay [1] (setting [4]) and 2 ± 1 µM in assay [2] (setting [5]).

Take `O=C(NCCO)c1ccc(-c2c(C#CCCO)sc(-c3ccc(F)cc3)c2-c2ccncc2)cc1` [Compound 3.38, 4-(5-(4-Fluorophenyl)-2-(4-hydroxybut-1-yn-1-yl)-4-(pyridin-4-yl)thiophen-3-yl)-N-(2-hydroxyethyl)benzamide]: the Ki was over 10 µM in assay [1] (setting [4]) and 1.7 ± 0.2 µM in assay [2] (setting [5]).

On to `Nc1cccc(-c2c(C#CCCO)sc(-c3ccc(F)cc3)c2-c2ccncc2)c1` [Compound 3.39, 4-(3-(3-Aminophenyl)-5-(4-fluorophenyl)-4-(pyridin-4-yl)thiophen-2-yl)but-3-yn-1-ol], for which the Ki in assay [1] (setting [4]) is over 10 µM; in assay [2] (setting [5]), 3.2 µM.

As to `Nc1ccc(-c2c(C#CCCO)sc(-c3ccc(F)cc3)c2-c2ccncc2)cc1` [Compound 3.40, 4-(3-(4-Aminophenyl)-5-(4-fluorophenyl)-4-(pyridin-4-yl)thiophen-2-yl)but-3-yn-1-ol], the Ki in assay [1] (setting [4]) and in assay [2] (setting [5]) was over 10 µM in each case.

With `CC(=O)Nc1cccc(-c2c(C#CCCO)sc(-c3ccc(F)cc3)c2-c2ccncc2)c1` [Compound 3.41, N-(3-(5-(4-fluorophenyl)-2-(4-hydroxybut-1-yn-1-yl)-4-(pyridin-4-yl)thiophen-3-yl)phenyl)acetamide], the Ki is 2.6 ± 0.6 µM in assay [1] (setting [4]) and 2 ± 0.1 µM in assay [2] (setting [5]).

In the case of `CC(=O)Nc1ccc(-c2c(C#CCCO)sc(-c3ccc(F)cc3)c2-c2ccncc2)cc1` [Compound 3.42, N-(4-(5-(4-fluorophenyl)-2-(4-hydroxybut-1-yn-1-yl)-4-(pyridin-4-yl)thiophen-3-yl)phenyl)acetamide], the Ki in assay [1] (setting [4]) and in assay [2] (setting [5]) was over 10 µM in each case.

For `O=C(Nc1cccc(-c2c(C#CCCO)sc(-c3ccc(F)cc3)c2-c2ccncc2)c1)c1ccccc1` [Compound 3.43, N-(3-(5-(4-fluorophenyl)-2-(4-hydroxybut-1-yn-1-yl)-4-(pyridin-4-yl)thiophen-3-yl)phenyl)benzamide], the Ki in assay [1] (setting [4]) and in assay [2] (setting [5]) was over 10 µM throughout.

In the case of `O=C(Nc1ccc(-c2c(C#CCCO)sc(-c3ccc(F)cc3)c2-c2ccncc2)cc1)c1ccccc1` [Compound 3.44, N-(4-(5-(4-fluorophenyl)-2-(4-hydroxybut-1-yn-1-yl)-4-(pyridin-4-yl)thiophen-3-yl)phenyl)benzamide], the inhibition constant (Ki) in assay [1] (setting [4]) and in assay [2] (setting [5]) was over 10 µM throughout.

As for `Cc1ccc(S(=O)(=O)Nc2cccc(-c3c(C#CCCO)sc(-c4ccc(F)cc4)c3-c3ccncc3)c2)cc1` [Compound 3.45, N-(3-(5-(4-fluorophenyl)-2-(4-hydroxybut-1-yn-1-yl)-4-(pyridin-4-yl)thiophen-3-yl)phenyl)-4-methylbenzenesulfonamide], the Ki in assay [1] (setting [4]) and in assay [2] (setting [5]) was over 10 µM in each case.

As for `Cc1ccc(S(=O)(=O)Nc2ccc(-c3c(C#CCCO)sc(-c4ccc(F)cc4)c3-c3ccncc3)cc2)cc1` [Compound 3.46, N-(4-(5-(4-fluorophenyl)-2-(4-hydroxybut-1-yn-1-yl)-4-(pyridin-4-yl)thiophen-3-yl)phenyl)-4-methylbenzenesulfonamide], the Ki in assay [1] (setting [4]) and in assay [2] (setting [5]) was over 10 µM each time.

Take `N#Cc1cccc(-c2c(C#CCCO)sc(-c3ccc(F)cc3)c2-c2ccncc2)c1` [Compound 3.47, 3-(5-(4-Fluorophenyl)-2-(4-hydroxybut-1-yn-1-yl)-4-(pyridin-4-yl)thiophen-3-yl)benzonitrile]: the results for the Ki in assay [1] (setting [4]) and in assay [2] (setting [5]) were over 10 µM and 1.8 ± 0.4 µM, respectively.

For `NCC#Cc1cc(-c2ccncc2)c(-c2ccc(F)cc2)s1` [Compound 5.6, 3-(5-(4-Fluorophenyl)-4-(pyridin-4-yl)thiophen-2-yl)prop-2-yn-1-amine], the Ki in assay [1] (setting [3]) and in assay [1] (setting [4]) was over 10 µM each time.

Values taken from patent publication US11273153B2, “MAPK inhibitors” (EverBrilliant Pharma Pty Ltd, priority 2014, dated 2022).
